Experimental findings from ChEMBL document CHEMBL1126200, “Design and synthesis of novel FKBP inhibitors” (J Med Chem, 1992) are described below.

As usually defined, the IC50 is the concentration that gives 50% inhibition.

Structures are written as SMILES. Non-standard residues stand in square brackets, D forms with d. Residues, ends and D or L forms follow the SMILES beside them. *: point of attachment. Pip = O=C(O)[C@@H]1CCCCN1; Cbz = O=C(OCc1ccccc1)*

This experiment is described as follows: The compound was tested for the inhibitory activity of FK506 binding protein. Also noted: species or system Homo sapiens.
The compound `C[C@@H](/C=C/c1ccc(C(=O)C(=O)N2CCCC2C(=O)OC(C)(C)C)s1)CO` (stereo not given in full) displayed an IC50 above 100 µM. Turning to `COc1cccc(C(=O)CN2CCCC[C@H]2C(=O)N[C@@H](Cc2ccccc2)C(=O)OC(C)(C)C)c1`, the IC50 came out at 3 µM. Turning to `C[C@@H](/C=C/c1ccc(C(=O)C(=O)N2CCCC[C@H]2C(=O)NC(Cc2ccccc2)C(=O)OC(C)(C)C)s1)CO` (stereo not given in full), the half-inhibitory concentration (IC50) turned out to be 9 µM. As for `COC(=O)[C@H](Cc1ccccc1)NC(=O)[C@@H](NC(=O)[C@H](Cc1ccccc1)NC(=O)[C@@H]1CCCCN1C(=O)OCc1ccccc1)C(C)C` (Cbz-[Pip]FVF-OMe), the figure is above 100 µM; as for `COc1cccc(C(=O)CN2CCCC[C@H]2C(=O)N[C@H](C(=O)OC(C)(C)C)c2cccs2)c1`, 23 µM; as for `COC(=O)[C@H](Cc1ccccc1)NC(=O)[C@@H](NC(=O)[C@H](Cc1ccccc1)NC(=O)[C@@H]1CCCCN1CC(=O)c1ccc2ccccc2c1)C(C)C`, 0.3 µM.

Consider `COc1cccc(C(=O)CN2CCCC[C@H]2C(=O)N[C@@H](Cc2ccccc2)C(=O)N[C@H](/C=C/COC(=O)c2ccccc2)C(C)C)c1`, for which the IC50 amounted to 62 µM.

In turn, `COc1cccc(C(=O)CN2CCCC[C@H]2C(=O)N[C@H](C(=O)OC(C)(C)C)c2ccsc2)c1` had an IC50 of 22 µM. For `C[C@@H](/C=C/c1ccc(C(=O)CN2CCCC2C(=O)NC(Cc2ccccc2)C(=O)OC(C)(C)C)s1)CO[Si](C)(C)C(C)(C)C` (stereo not given in full), the IC50 stood at 60 µM. Turning to `COc1cccc(C(=O)CN2CCCC[C@H]2C(=O)N[C@@H](Cc2ccccc2)C(=O)N[C@H](/C=C/[C@@H](C)CC(C)=O)C(C)C)c1`, the IC50 was 10 µM.

In the case of `COc1cccc(C(=O)CN2CCCC[C@H]2C(=O)N[C@H](Cc2ccccc2)C(=O)OC(C)(C)C)c1`, the IC50 worked out at 81 µM. Then `CCC(C)C(NC(=O)[C@H](Cc1ccccc1)NC(=O)[C@@H]1CCCCN1CC(=O)c1cccc(OC)c1)C(=O)OC(C)(C)C` (stereo not given in full), with 6 µM; and `COc1cccc(C(=O)CN2CCCC[C@H]2C(=O)N[C@@H](Cc2ccc([N+](=O)[O-])cc2)C(=O)OC(C)(C)C)c1`, with 27 µM. As for `CC(C)[C@H](NC(=O)[C@H](Cc1ccccc1)NC(=O)[C@@H]1CCCCN1CC(=O)c1ccc2ccccc2c1)C(=O)N[C@@H](Cc1ccccc1)C(=O)OC(C)(C)C`, the figure is 13 µM; as for `COc1cccc(C(=O)CN2CCCC[C@H]2C(=O)N[C@@H](Cc2ccccc2)C(=O)N[C@H](C(=O)N[C@@H](Cc2ccccc2)C(=O)O[C@H](C)c2ccccc2)C(C)C)c1`, 23 µM.

In turn, `COc1cccc(C(=O)CN2CCCC[C@H]2C(=O)N[C@@H](Cc2ccccc2)C(=O)N[C@H](C(=O)Cc2ccccc2)C(C)C)c1` registered an IC50 of 14 µM.

In turn, `C=CCCC(NC(=O)[C@H](Cc1ccccc1)NC(=O)[C@@H]1CCCCN1CC(=O)c1cccc(OC)c1)C(=O)OC(C)(C)C` (stereo not given in full) came in with an IC50 of 12 µM. On to `COc1cccc(C(=O)CN2CCCC[C@H]2C(=O)N[C@@H](Cc2ccccc2)C(=O)NC(Cc2ccccc2)C(=O)OC(C)(C)C)c1` (stereo not given in full), for which the IC50 turned out to be 40 µM. In the case of `COc1cccc(C(=O)CN2CCCC[C@H]2C(=O)N[C@@H](Cc2ccccc2)C(=O)N[C@H](/C=C/C2CCCC(=O)O2)C(C)C)c1` (stereo not given in full), the concentration for half-maximal inhibition (IC50) was found to be 42 µM. As for `COc1cccc(C(=O)CN2CCCC[C@H]2C(=O)N[C@@H](Cc2ccccc2)C(=O)N[C@H](/C=C/C(=O)N[C@@H](C)c2ccccc2)C(C)C)c1`, the IC50 worked out at 40 µM. For `CC(C)(C)OC(=O)N[C@@H](CC1CCCCC1)C(=O)CN1CCCC1C(=O)NC(Cc1ccccc1)C(=O)OC(C)(C)C` (stereo not given in full), the IC50 is above 100 µM.

With `C=CCOC/C=C/[C@@H](NC(=O)[C@H](Cc1ccccc1)NC(=O)[C@@H]1CCCCN1CC(=O)c1cccc(OC)c1)C(C)C`, the IC50 was 3 µM. For the compound `COc1cccc(C(=O)CN2CCCC[C@H]2C(=O)N[C@@H](Cc2ccccc2)C(=O)N[C@H](C(=O)N[C@@H](Cc2ccccc2)C(=O)N[C@H](C)c2ccccc2)C(C)C)c1`, the IC50 was 85 µM. As to `COC1CCCC(C(=O)CN2CCCC2C(=O)NC(Cc2ccccc2)C(=O)OC(C)(C)C)C1` (stereo not given), the IC50 is above 100 µM.

Regarding `CC(C)[C@H](NC(=O)[C@H](Cc1ccccc1)NC(=O)[C@@H]1CCCCN1CC(=O)c1ccc2ccccc2c1)C(=O)N[C@@H](Cc1ccccc1)C(=O)N[C@H](C)c1cccc2ccccc12`, the IC50 was found to be 75 µM. `CC(C)[C@H](NC(=O)[C@H](Cc1ccccc1)NC(=O)[C@@H]1CCCCN1CC(=O)c1ccc2ccccc2c1)C(=O)N[C@@H](Cc1ccccc1)C(=O)N[C@H](C)c1ccccc1` gave an IC50 of 65 µM.

`COc1cccc(C(=O)CN2CCCC[C@H]2C(=O)N[C@@H](Cc2ccccc2)C(=O)NC(CCCCNC(=O)OCc2ccccc2)C(=O)OCc2ccccc2)c1` (stereo not given in full): the IC50 was above 100 µM.

`CC(C)(C)OC(=O)C(CC1CCCCC1)NC(=O)[C@H](Cc1ccccc1)NC(=O)[C@@H]1CCCCN1CC(=O)c1ccc2ccccc2c1` (stereo not given in full) came in with an IC50 of 35 µM. `COc1cccc(C(=O)CN2CCCC[C@H]2C(=O)N[C@@H](Cc2ccccc2)C(=O)N[C@H](/C=C/COC(=O)C(F)(F)F)C(C)C)c1` had a half-maximal inhibitory concentration (IC50) of 1 µM. In turn, `COc1cccc(C(=O)CN2CCCC[C@H]2C(=O)N[C@@H](Cc2ccccc2)C(=O)N[C@H](/C=C/C2CCC(=O)C2)C(C)C)c1` (stereo not given in full) had an IC50 of 11 µM. Then `COc1cccc(C(=O)CN2CCCC[C@H]2C(=O)N[C@@H](CCc2ccccc2)C(=O)OC(C)C)c1`, with above 100 µM; and `COc1cccc(C(=O)CN2CCCC[C@H]2C(=O)N[C@@H](Cc2ccccc2)C(=O)N[C@H](C(=O)N[C@@H](Cc2ccccc2)C(=O)O[C@@H](C)c2ccccc2)C(C)C)c1`, with 56 µM. Regarding `COc1cccc(C(=O)CN2CCCC[C@H]2C(=O)N[C@H](C(=O)OC(C)(C)C)C(C)C)c1`, the IC50 was determined as 83 µM. In the case of `COc1cccc(C(=O)CN2CCCC[C@H]2C(=O)N[C@@H](Cc2ccccc2)C(=O)N[C@H](C(=O)N[C@@H](Cc2ccccc2)C(=O)N[C@H](C)c2cccc3ccccc23)C(C)C)c1`, the 50% inhibitory concentration (IC50) was 30 µM.

`C[C@@H](/C=C/c1ccc(C(=O)C(=O)N2CCCC2C(=O)NC(Cc2ccccc2)C(=O)OC(C)(C)C)s1)CO` (stereo not given in full) had an IC50 of 120 µM.

In turn, `COc1cccc(C(=O)CN2CCCC[C@H]2C(=O)N[C@@H](CCC2CCCCC2)C(=O)OC(C)C)c1` had an IC50 above 100 µM. In the case of `CC(C)C(NC(=O)[C@H](Cc1ccccc1)NC(=O)[C@@H]1CCCCN1CC(=O)c1ccc2ccccc2c1)C(=O)OC(C)(C)C` (stereo not given in full), the IC50 stood at 1 µM. Consider `COc1cccc(C(=O)CN2CCCC2C(=O)NC(Cc2ccccc2)C(=O)OC(C)(C)C)c1` (stereo not given), for which the IC50 came to 12 µM. `COc1cccc(C(=O)CN2CCCC[C@H]2C(=O)N[C@@H](Cc2ccccc2)C(=O)NC(CC2CCCCC2)C(=O)OC(C)(C)C)c1` (stereo not given in full): the IC50 amounted to 70 µM. Then `COc1cccc(C(=O)CN2CCCC[C@H]2C(=O)N[C@@H](Cc2ccccc2)C(=O)N[C@H](/C=C/I)C(C)C)c1`, with 2 µM; and `C[C@@H](/C=C/c1ccc(C(=O)C(=O)N2CCCC2C(=O)NC(Cc2ccccc2)C(=O)OC(C)(C)C)s1)CO[Si](C)(C)C(C)(C)C` (stereo not given in full), with above 100 µM.

In turn, `COc1cccc(C(=O)CN2CCCC[C@H]2C(=O)N[C@@H](Cc2ccccc2)C(=O)N[C@H](/C=C/COC(C)=O)C(C)C)c1` yielded an IC50 of 2 µM. Compound `CC(C)[C@@H](/C=C/C(=O)N[C@@H](C)c1ccccc1)NC(=O)[C@H](Cc1ccccc1)NC(=O)[C@@H]1CCCCN1CC(=O)c1ccc2ccccc2c1` returned an IC50 of 35 µM. In turn, `CC(=O)OC/C=C/[C@@H](NC(=O)[C@H](Cc1ccccc1)NC(=O)[C@@H]1CCCCN1CC(=O)c1ccc2ccccc2c1)C(C)C` had an IC50 of 18 µM. `COc1cccc(C(=O)CN2CCCC[C@H]2C(=O)N[C@@H](Cc2ccccc2)C(=O)N[C@H](C(=O)N[C@@H](Cc2ccccc2)C(=O)OC(C)(C)C)C(C)C)c1`: the IC50 stood at 20 µM. `CCOC(=O)/C=C/[C@@H](NC(=O)[C@H](Cc1ccccc1)NC(=O)[C@@H]1CCCCN1CC(=O)c1cccc(OC)c1)C(C)C` registered an IC50 of 15 µM. In turn, `COc1cccc(C(=O)CN2CCCC[C@H]2C(=O)N[C@@H](Cc2ccccc2)C(=O)NC(CC(C)C)C(=O)OC(C)(C)C)c1` (stereo not given in full) had an IC50 of 3 µM. `COc1cccc(C(=O)CN2CCCC[C@H]2C(=O)N[C@@H](CC2CCCCC2)C(=O)OC(C)(C)C)c1` returned a half-maximal inhibitory concentration (IC50) of 91 µM. With `CCC(C)[C@H](NC(=O)[C@@H]1CCCCN1CC(=O)c1cccc(OC)c1)C(=O)OC(C)(C)C` (stereo not given in full), the half-maximal inhibitory concentration (IC50) was 8 µM. Regarding `COc1cccc(C(=O)CN2CCCC[C@H]2C(=O)N[C@@H](Cc2ccccc2)C(=O)N[C@H](C(=O)N[C@@H](Cc2ccccc2)C(=O)N[C@@H](C)c2ccccc2)C(C)C)c1`, the IC50 was found to be 59 µM.

`COC(=O)[C@H](Cc1ccccc1)NC(=O)[C@@H](NC(=O)[C@H](Cc1ccccc1)NC(=O)[C@@H]1CCCCN1CC(=O)c1ccc(-c2ccccc2)cc1)C(C)C` registered an IC50 of 26 µM. `COc1cccc(C(=O)CN2CCCC[C@H]2C(=O)N[C@@H](Cc2ccccc2)C(=O)NC(C(=O)OC(C)(C)C)C(C)C)c1` (stereo not given in full) came in with an IC50 of 3 µM. As to `C[C@@H](/C=C/c1ccc(C(=O)C(=O)N2CCCC2C(=O)OC(C)(C)C)s1)CO[Si](C)(C)C(C)(C)C` (stereo not given in full), the IC50 was above 100 µM. As to `COC(=O)[C@H](Cc1ccccc1)NC(=O)[C@@H](NC(=O)[C@H](Cc1ccccc1)NC(=O)[C@@H]1CCCCN1)C(C)C` (H-[Pip]FVF-OMe), the IC50 was above 100 µM. Consider `COC(=O)[C@H](Cc1ccccc1)NC(=O)[C@@H](NC(=O)[C@H](Cc1ccccc1)NC(=O)[C@@H]1CCCCN1CC(=O)c1cccc(OC)c1)C(C)C`, for which the IC50 worked out at 1 µM.
